Assay results as given in patent US20240374673A1, “PHARMACEUTICAL COMPOSITION FOR PREVENTING OR TREATING INFLAMMATORY SKIN DISEASE” (3BIGS CO., LTD., priority 2021, published 2024).
Residues, ends and D or L forms follow the SMILES beside them.

Experiment: Body weight in chronic contact dermatitis mouse model
Assay type: in vivo
Details: DNCB mice
Procedure: The 6-week-old male […] mouse used in the animal experiment is a species of ‘SKH-1 hairless’ and barely has body hair to ensure convenience in intuitively observing the skin condition, of which was divided, for experiment, into 3 groups out of 18 individuals in total (6 individuals for a negative control group/6 individuals for a positive control group/6 individuals for a novel peptide treated group).
After an adaptation period of about 2 weeks, 100 μL of 2,4-dinitrochlorobenzene (DNCB) prepared at a concentration of 1% in solution of acetone: olive oil (3:1) was applied onto the dorsal skin of mice at a certain time every day. After 1 week, if the incidence of contact dermatitis was observed, the DNCB was lowered to 0.5% and applied by 100 μL every 2 days, and the novel peptide was prepared in normal saline at a concentration of 1 mg/ml and applied by 100 μg daily for 3 weeks, while skin condition was observed every week during the experiment.

Structure (SMILES): C[C@@H](O)[C@H](NC(=O)[C@@H](N)CCCCN)C(=O)N[C@@H](Cc1ccccc1)C(=O)N[C@@H](CCCNC(=N)N)C(=O)O [novel peptide, KTFR] (H-KTFR-OH)
- changes in the body weight (100 μg applied daily for 3 weeks): no significant changes in the body weight
- stress induced by the peptide (concluded from body weight): no stress was induced
